# Patent US7662767B2, “Polynucleotide intercalator interceptors and inhibitors” (Materials Evolution and Development USA, Inc., priority 2000, dated 2010)
# Values joined by “and” are separate entries in the source; they are usually repeats but may differ in a detail not shown here. Equal values may be shown once.
# What was measured:
# [1] = tested on: chicken erythrocyte nuclear chromatin; experiment: Blocking of acridine orange intercalation into chicken erythrocyte nuclear chromatin, fluorescence microscopy; parameters: key: 0: no blocking effect; 1: slight blocking; 2: moderate blocking; 3: almost total blocking (very slight green fluorescence detectable); 4: complete blockage (no green fluorescence detectable); settings: 10 μM AO
# Experimental: Microscope slides coated with chicken erythrocyte were stained with 10 μM AO at three separate areas on the microscope slide as described above. Slides were exposed to […] different xanthies at four different molar ratios for three different periods of time. The xanthines, theophylline, caffeine, 1,3,7,9-tetramethyl uric acid, and aminophylline, were prepared with 10 μM AO at molar ratios of 50:1, 500:1, 2500:1, 5000:1 xanthine to AO in distilled water. Microscope slides coated with chicken erythrocytes were exposed to a mixture of xanthine/AO at each molar ratio for periods of 10 min, 1 min, and 10 seconds under static (non-agitated) conditions. […] Following exposure to the xanthine/AO or to the DNA/AO solutions, the slides were rinsed in distilled water, allowed to dry at room temperature, examined by fluorescence microscopy, and the color of the nuclei recorded. Results were recorded as follows: 0=no blocking effect; 1=slight blocking; 2=moderate blocking; 3=almost total blocking (very slight green fluorescence detectable); 4=complete blockage (no green fluorescence detectable).
# In the implementation shown in Table 4-2, the relative intensity of the green fluorescent color ([…]) utilizing a red blocking filter (≧600 nm) was used as the indicator of the intensity of staining. The molar ratio is expressed as the ratio of xanthine concentration to 10 μM AO. Results were recorded as follows: 0=no blocking effect; 1=slight blocking; 2=moderate blocking; 3=almost total blocking (very slight green fluorescence detectable); 4=complete blockage (no green fluorescence detectable). *Kassoc values for the xanthines are taken from Table 2-1 and the Kassoc values for DNA were taken from Table 3-2.
# [2] = tested on: chicken erythrocyte nuclear chromatin; experiment: Removal of acridine orange from stained chicken erythrocyte nuclear chromatin by xanthine rinse, fluorescence microscopy; settings: for Nuclear color, Stain: before xanthine rinse; for Nuclear color, Re-stain: re-stained after xanthine rinse; for Nuclear color, After Rinse: xanthine rinse 50 mM, 1 hour, static
# Experimental: Experiments were conducted to determine whether xanthines with known binding affinities to AO could compete with nuclear DNA for binding to AO and, therefore, be able to remove AO from its intercalation position within nuclear chromatin. Fluorescence microscopy was used to observe the fluorescent color produced by the AO-DNA complex following the staining of chicken erythrocyte nuclear chromatin with AO at both 5 μM and 5 mM.
# Microscope slides smeared with chicken erythrocytes were stained with either 5 μM or 5 mM AO for a period of 30 minutes followed by three 10 second rinses in distilled water before drying at room temperature. Slides were then examined by fluorescence microscopy using a, Zeiss Model 63 Microscope with a xenon source fluorescent emitter. In some instances, a blocking filter was used to filter out fluorescence emission in the red and higher wavelengths. Photomicrographs were taken with Kodak Gold 35 mm ASA 1600 speed film, developed and color prints made. Comparative photomicrographs were taken at the same magnification and at the same exposure time. Selected photomicrographs were digitally scanned (Hewitt-Packard, Model 4L Scanner, Palo Alto, Calif.) and stored on 100 MB ZIP cartridges.
# Slides were again examined by fluorescence microscopy and fluorescence color of the nuclei recorded. Slides were again stained with 5 mM AO then re-examined by fluorescence microscopy and fluorescence color of the nuclei recorded.
# In the example shown in Table 4-3, the chicken erythrocytes were smeared and dried on a microscope slide prior to exposure to the AO solution for 30 minutes followed by water rinses to remove excess AO. Following drying, each slide was observed under fluorescence microscopy then placed in one of the xanthine solutions (50 ml volume) for 1 hour under static conditions, rinsed with water, then dried prior to being observed by fluorescence microscopy without a red blocking filter. Finally, each slide was restained following the initial staining procedures and again observed by fluorescence microscopy. Kassoc values are taken from Table 2-1 and are expressed in M^−1.
# [3] = Optical titration (absorbance) of acridine orange with xanthines/purines, Kassoc from delta absorbance; format: binding; settings: for Kassoc ± S.E.: binding affinity between acridine orange (10 μM) and compound, 5 mM HEPES pH 7.0, 25±1° C., 0 = no measurable association detected; for complex formation / binding affinity with AO: optical titration
# Experimental: A red spectral shift in the optical adsorption maximum of AO upon the addition of a particular xanthine, indicates the possibility of a complex being formed between the two compounds. Spectral shifts can be measured by optical titrations.
# Optical titrations (serial additions of various xanthines to a solution of AO) were performed on a Beckman DU-600 Scanning Spectrophotometer (Beckman Instrument Co., New York, N.Y.) using a 3 mL (1-cm light path) quartz cuvette containing 2.0 mL of a […]. The DU600 Spectrophotometer was blanked with 2 mL of a pH 7.0 buffered 5 mM HEPES solution over the full range of wavelengths to be scanned prior to sample analysis. This reduced the need to subtract the background absorbance from the HEPES buffer. Optical absorbance scans were performed over a wavelength range preferably from 400 nm to 550 nm. […] The 10 μM AO solution was scanned before the start of each titration series to quantitatively monitor any changes in the absorbance spectrum. Optical absorbance experiments were performed using aliquots varying in volume from 1:L to 20:L taken from prepared xanthine stock solutions (5 mM to 50 mM) and titrated into the cuvette containing 2.0 mL of the 10 μM AO solution. The solution in the cuvette was then thoroughly mixed by 10 seconds of shaking before scanning. All titrations were performed at room temperature (25±1° C.). The absorbance spectra were measured in 1 nm intervals and stored in digital form. Digitized scan data was converted to a Lotus Spreadsheet file (*.wk1) using a conversion program supplied by the manufacturer (Beckman Instruments Inc.) then imported into a Microsoft Excel 97™ Workbook file (*.xls) and saved in this format for further analysis. Spectral data for each titration was combined and expressed in graphic form (Excel™) (X-axis=wavelength in nm; Y-axis=optical absorbance) for each xanthine titrated with AO. […] Adjusted absorption values were plotted and compared to spectra from non-complexed AO. This allowed for the visualization of an expected spectral shift that occurs when AO forms a complex with a xanthine.
# The association constant, Kassoc, may be used to analyze the binding ability of modified xanthines to DNA intercalators. The association constant may be calculated based upon a differential shift in the absorbance spectrum. When the presence of the xanthine caused a spectral shift, a difference absorbance plot or delta plot was obtained. Delta plots were constructed by subtracting the adjusted absorption spectrum of AO in the presence of the xanthine from the initial spectrum of AO alone at each wavelength and for each aliquot of the titration. This procedure allowed for the creation of difference absorption values or delta absorption values. Delta absorption values obtained in this manner (Y-axis=delta absorption) were plotted against wavelength in nm (X-axis). The appearance of a single isobestic point was indicative of only two species present in solution, AO, and an AO complex. Graphic representation allowed for the selection of a wavelength with the maximum sensitivity for determining the association constant. This wavelength was characterized by the greatest positive response in delta absorbance values observed upon addition of each aliquot of xanthine to the AO solution. The AO-xanthine association or binding constant was determined by the following equilibrium expression: I+X≡IX EQUATION 1: […]
# Where I represents the intercalator (AO), X represents the interceptor molecule (xanthine), and IX represents the AO-xanthine complex, respectively.
# [4] = Xanthine/AO molar ratio 5000:1, exposure 10 min
# [5] = molar ratio 50:1, exposure 10 sec
# [6] = molar ratio 50:1, exposure 1 min
# [7] = molar ratio 50:1, exposure 10 min
# [8] = molar ratio 500:1, exposure 10 sec
# [9] = molar ratio 500:1, exposure 1 min
# [10] = molar ratio 500:1, exposure 10 min
# [11] = molar ratio 2500:1, exposure 10 sec
# [12] = molar ratio 2500:1, exposure 1 min
# [13] = molar ratio 2500:1, exposure 10 min
# [14] = molar ratio 5000:1, exposure 10 sec
# [15] = molar ratio 5000:1, exposure 1 min
# [16] = Table 2-2, Kassoc value with acridine orange (this report)
# [17] = Table 4-2, in parentheses under compound, taken from Table 2-1
# [18] = Table 4-3, taken from Table 2-1
smiles,measurement,setting,value
"Cn1c(=O)c2c(n(C)c1=O)n(C)c(=O)n2C [1,3,7,9-tetramethyl-8-oxy xanthine]",blocking of AO intercalation,[1]; [4],2
same,blocking of AO intercalation,[1]; [5],0
same,blocking of AO intercalation,[1]; [6],0
same,blocking of AO intercalation,[1]; [7],0
same,blocking of AO intercalation,[1]; [8],0
same,blocking of AO intercalation,[1]; [9],0
same,blocking of AO intercalation,[1]; [10],0
same,blocking of AO intercalation,[1]; [11],0
same,blocking of AO intercalation,[1]; [12],1
same,blocking of AO intercalation,[1]; [13],1
same,blocking of AO intercalation,[1]; [14],2
same,blocking of AO intercalation,[1]; [15],2
same,effect of xanthine rinse on fluorescence of AO stained nuclear chromatin,[2]; 50 mM xanthine rinse,"removal of most, if not all, green and red color"
same,"Nuclear color, Stain",[2]; AO [5 μM] 30 minutes,Green
same,"Nuclear color, Re-stain",[2]; AO [5 μM],Green
same,"Nuclear color, After Rinse",[2]; AO [5 μM],None
same,"Nuclear color, Stain",[2]; AO [5 mM] 30 minutes,Red
same,"Nuclear color, Re-stain",[2]; AO [5 mM],Red
same,"Nuclear color, After Rinse",[2]; AO [5 mM],None
same,Kassoc,[3]; [16],552 M⁻¹
same,Kassoc,[3]; [17],(552) M^−1
same,Kassoc,[3]; [18],552 M⁻¹
same,Kassoc ± S.E.,[3],551.5 ± 9.0 M⁻¹
same,Kassoc ± S.E.,"[3]; listed as 1,3,7,9-tetramethyl uric acid",552 M⁻¹
"Cn1c(=O)c2[nH]cnc2n(C)c1=O [1,3-dimethyl xanthine (theophylline), 1,3-dimethyl xanthine]",blocking of AO intercalation,[1]; [4],0
same,blocking of AO intercalation,[1]; [5],0
same,blocking of AO intercalation,[1]; [6],0
same,blocking of AO intercalation,[1]; [7],0
same,blocking of AO intercalation,[1]; [8],0
same,blocking of AO intercalation,[1]; [9],0
same,blocking of AO intercalation,[1]; [10],0
same,blocking of AO intercalation,[1]; [11],0
same,blocking of AO intercalation,[1]; [12],0
same,blocking of AO intercalation,[1]; [13],0
same,blocking of AO intercalation,[1]; [14],0
same,blocking of AO intercalation,[1]; [15],0
same,"Nuclear color, Stain",[2]; AO [5 μM] 30 minutes,Green
same,"Nuclear color, Re-stain",[2]; AO [5 μM],Green
same,"Nuclear color, After Rinse",[2]; AO [5 μM],Green
same,"Nuclear color, Stain",[2]; AO [5 mM] 30 minutes,Red
same,"Nuclear color, Re-stain",[2]; AO [5 mM],Red
same,"Nuclear color, After Rinse",[2]; AO [5 mM],Red
same,Kassoc,[3]; [16],157 M⁻¹
same,Kassoc,[3]; [17],(157) M^−1
same,Kassoc,[3]; [18],161 M⁻¹
same,Kassoc ± S.E.,[3],160.8 M⁻¹
"Cn1c(=O)c2[nH]c(Cl)nc2n(C)c1=O [1,3-dimethyl-8-chloro xanthine]",Kassoc ± S.E.,[3],412.5 ± 11.7 M⁻¹
same,complex formation / binding affinity with AO,[3],failed to exhibit any significant binding affinity for AO
"Cn1c(=O)c2[nH]c(=O)[nH]c2n(C)c1=O [1,3-dimethyl-8-oxy xanthine]",Kassoc ± S.E.,[3],38.5 M⁻¹ and 38.5 ± 2.2 M⁻¹
same,complex formation / binding affinity with AO,[3],failed to exhibit any significant binding affinity for AO
"Cn1c(=O)[nH]c2ncn(C)c2c1=O [1,7-dimethyl xanthine]",Kassoc,[3]; [16],155 M⁻¹
same,Kassoc ± S.E.,[3],155.3 ± 3.1 M⁻¹
Cn1c(=O)[nH]c2nc[nH]c2c1=O [1-methyl xanthine],Kassoc,[3]; [16],79^a M^−1
same,Kassoc ± S.E.,[3],79.2 ± 2.0 M⁻¹
same,complex formation / binding affinity with AO,[3],failed to exhibit any significant binding affinity for AO
Cn1cnc2ncnc-2c1N [1-methyl-6-amino purine],Kassoc ± S.E.,[3],~14 M⁻¹
Cn1c(=O)[nH]c2[nH]c(=O)[nH]c2c1=O [1-methyl-8-oxy xanthine],Kassoc ± S.E.,[3],0 M⁻¹
same,complex formation / binding affinity with AO,[3],failed to exhibit any significant binding affinity for AO
COc1nc(N)nc2nc[nH]c12 [2-amino-6-methoxy purine],Kassoc ± S.E.,[3],~2 M⁻¹
Cn1c(=O)[nH]c(=O)c2[nH]cnc21 [3-methyl xanthine],complex formation / binding affinity with AO,[3],little or no affinity to complex with AO
Clc1ncnc2nc[nH]c12 [6-chloro purine],Kassoc ± S.E.,[3],0 M⁻¹
Cc1ncnc2nc[nH]c12 [6-methyl purine],Kassoc ± S.E.,[3],0 M⁻¹
Cn1cnc2[nH]c(=O)[nH]c(=O)c21 [7-methyl xanthine],Kassoc ± S.E.,[3],0 M⁻¹
same,complex formation / binding affinity with AO,[3],little or no affinity to complex with AO
Cn1c(=O)[nH]c2[nH]c(=O)[nH]c(=O)c21 [7-methyl-8-oxy xanthine],Kassoc ± S.E.,[3],0 M⁻¹
same,complex formation / binding affinity with AO,[3],little or no affinity to complex with AO
c1ncc2[nH]cnc2n1 [Purine],Kassoc ± S.E.,[3],~2 M⁻¹
"O=c1[nH]c(=O)c2[nH]c(=O)[nH]c2[nH]1 [uric acid (8-oxy xanthine), 8-oxy xanthine]",Kassoc ± S.E.,[3],0 M⁻¹
same,complex formation / binding affinity with AO,[3],did not complex with AO
